# According to PubChem BioAssay (NCI):
#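 All cell lines were grown in 96-well plates and treated with compound for 48 hours. TGI: total growth inhibition.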
# Tests used:
# Assay in all cases: NCI-60 cell line screen, 48 h
# HOP-62 NSCLC = test system: HOP-62 NSCLC
# A549 NSCLC = test system: A549 NSCLC
# SK-MEL-28 melanoma = test system: SK-MEL-28 melanoma
# U251 CNS = test system: U251 CNS
# OVCAR-8 ovarian = test system: OVCAR-8 ovarian
# MDA-MB-435 = test system: MDA-MB-435
# RPMI-8226 leukemia = test system: RPMI-8226 leukemia
# EKVX NSCLC = test system: EKVX NSCLC
# NCI-H460 lung = test system: NCI-H460 lung
# SK-OV-3 ovarian = test system: SK-OV-3 ovarian
# MCF7 breast = test system: MCF7 breast
# COLO 205 colon = test system: COLO 205 colon
# UACC-62 melanoma = test system: UACC-62 melanoma
# IGROV1 ovarian = test system: IGROV1 ovarian
# HCT-116 colon = test system: HCT-116 colon
# CAKI-1 renal = test system: CAKI-1 renal
# MDA-MB-231 breast = test system: MDA-MB-231 breast
# TK-10 renal = test system: TK-10 renal
# 786-0 renal = test system: 786-0 renal
# MALME-3M melanoma = test system: MALME-3M melanoma
# M14 melanoma = test system: M14 melanoma
# NCI/ADR-RES ovarian = test system: NCI/ADR-RES ovarian
# MDA-N = test system: MDA-N
# OVCAR-3 ovarian = test system: OVCAR-3 ovarian
# K-562 leukemia = test system: K-562 leukemia
# HS 578T breast = test system: HS 578T breast
# OVCAR-4 ovarian = test system: OVCAR-4 ovarian
# SW-620 colon = test system: SW-620 colon
# MOLT-4 leukemia = test system: MOLT-4 leukemia
# UO-31 renal = test system: UO-31 renal
# SK-MEL-5 melanoma = test system: SK-MEL-5 melanoma
# BT-549 breast = test system: BT-549 breast
# OVCAR-5 ovarian = test system: OVCAR-5 ovarian
# T-47D breast = test system: T-47D breast
# SNB-75 CNS = test system: SNB-75 CNS
# HCC-2998 colon = test system: HCC-2998 colon
# RXF 393 renal = test system: RXF 393 renal
# NCI-H226 lung = test system: NCI-H226 lung
# HL-60(TB) leukemia = test system: HL-60(TB) leukemia
# SF-268 CNS = test system: SF-268 CNS
# NCI-H522 lung = test system: NCI-H522 lung
# CCRF-CEM leukemia = test system: CCRF-CEM leukemia
# SN12C renal = test system: SN12C renal
# HT29 colon = test system: HT29 colon
# SK-MEL-2 melanoma = test system: SK-MEL-2 melanoma
# ACHN renal = test system: ACHN renal
# SF-295 CNS = test system: SF-295 CNS
# NCI-H23 lung = test system: NCI-H23 lung
# KM12 colon = test system: KM12 colon
# UACC-257 melanoma = test system: UACC-257 melanoma
# SNB-19 CNS = test system: SNB-19 CNS
# HCT-15 colon = test system: HCT-15 colon
# DU-145 prostate = test system: DU-145 prostate
# LOX IMVI melanoma = test system: LOX IMVI melanoma
# PC-3 prostate = test system: PC-3 prostate
# SF-539 CNS = test system: SF-539 CNS
compound,measurement,setting,value
Cc1ccc2c(=O)cc(-c3cc4ccccc4s3)[nH]c2n1,TGI,HOP-62 NSCLC,> 100 µM
same,TGI,A549 NSCLC,> 100 µM
same,TGI,SK-MEL-28 melanoma,> 100 µM
same,TGI,U251 CNS,> 100 µM
same,TGI,OVCAR-8 ovarian,> 100 µM
same,TGI,MDA-MB-435,> 100 µM
same,TGI,RPMI-8226 leukemia,> 100 µM
same,TGI,EKVX NSCLC,> 100 µM
same,TGI,NCI-H460 lung,> 100 µM
same,TGI,SK-OV-3 ovarian,> 100 µM
same,TGI,MCF7 breast,> 100 µM
same,TGI,COLO 205 colon,> 100 µM
same,TGI,UACC-62 melanoma,> 100 µM
same,TGI,IGROV1 ovarian,> 100 µM
same,TGI,HCT-116 colon,> 100 µM
same,TGI,CAKI-1 renal,> 100 µM
same,TGI,MDA-MB-231 breast,> 100 µM
same,TGI,TK-10 renal,> 100 µM
same,TGI,786-0 renal,> 100 µM
same,TGI,MALME-3M melanoma,> 100 µM
same,TGI,M14 melanoma,> 100 µM
same,TGI,NCI/ADR-RES ovarian,> 100 µM
same,TGI,MDA-N,> 100 µM
same,TGI,OVCAR-3 ovarian,> 100 µM
same,TGI,K-562 leukemia,> 100 µM
same,TGI,HS 578T breast,> 100 µM
same,TGI,OVCAR-4 ovarian,> 100 µM
same,TGI,SW-620 colon,> 100 µM
same,TGI,MOLT-4 leukemia,> 100 µM
same,TGI,UO-31 renal,0.17 µM
same,TGI,SK-MEL-5 melanoma,> 100 µM
same,TGI,BT-549 breast,> 100 µM
same,TGI,OVCAR-5 ovarian,> 100 µM
same,TGI,T-47D breast,48 µM
same,TGI,SNB-75 CNS,67.6 µM
same,TGI,HCC-2998 colon,> 100 µM
same,TGI,RXF 393 renal,97.2 µM
same,TGI,NCI-H226 lung,98.6 µM
same,TGI,HL-60(TB) leukemia,> 100 µM
same,TGI,SF-268 CNS,> 100 µM
same,TGI,NCI-H522 lung,> 100 µM
same,TGI,CCRF-CEM leukemia,> 100 µM
same,TGI,SN12C renal,> 100 µM
same,TGI,HT29 colon,> 100 µM
same,TGI,SK-MEL-2 melanoma,> 100 µM
same,TGI,ACHN renal,> 100 µM
same,TGI,SF-295 CNS,> 100 µM
same,TGI,NCI-H23 lung,> 100 µM
same,TGI,KM12 colon,> 100 µM
same,TGI,UACC-257 melanoma,> 100 µM
same,TGI,SNB-19 CNS,> 100 µM
same,TGI,HCT-15 colon,> 100 µM
same,TGI,DU-145 prostate,> 100 µM
same,TGI,LOX IMVI melanoma,> 100 µM
same,TGI,PC-3 prostate,> 100 µM
Cc1ccc(N/C(=C(/C(Cl)=C(Cl)Cl)[N+](=O)[O-])n2nnc3ccccc32)cc1,TGI,HOP-62 NSCLC,39.7 µM
same,TGI,A549 NSCLC,37.3 µM
same,TGI,SK-MEL-28 melanoma,33.8 µM
same,TGI,OVCAR-8 ovarian,38 µM
same,TGI,MDA-MB-435,40.2 µM
same,TGI,RPMI-8226 leukemia,64.8 µM
same,TGI,EKVX NSCLC,39.5 µM
same,TGI,NCI-H460 lung,34.4 µM
same,TGI,SK-OV-3 ovarian,35.8 µM
same,TGI,MCF7 breast,> 100 µM
same,TGI,COLO 205 colon,28.4 µM
same,TGI,HCT-116 colon,75.5 µM
same,TGI,CAKI-1 renal,31.6 µM
same,TGI,786-0 renal,38.4 µM
same,TGI,MALME-3M melanoma,29.9 µM
same,TGI,M14 melanoma,31.7 µM
same,TGI,NCI/ADR-RES ovarian,69.5 µM
same,TGI,MDA-N,38.1 µM
same,TGI,OVCAR-3 ovarian,34.3 µM
same,TGI,K-562 leukemia,> 100 µM
same,TGI,HS 578T breast,47.1 µM
same,TGI,OVCAR-4 ovarian,39.6 µM
same,TGI,SF-539 CNS,31.3 µM
same,TGI,SW-620 colon,43.5 µM
same,TGI,MOLT-4 leukemia,> 100 µM
same,TGI,UO-31 renal,30.2 µM
same,TGI,BT-549 breast,37.6 µM
same,TGI,OVCAR-5 ovarian,41 µM
same,TGI,T-47D breast,52.5 µM
same,TGI,SNB-75 CNS,35.4 µM
same,TGI,HCC-2998 colon,35.1 µM
same,TGI,NCI-H226 lung,35.3 µM
same,TGI,SF-268 CNS,36.8 µM
same,TGI,CCRF-CEM leukemia,64.5 µM
same,TGI,SN12C renal,43.7 µM
same,TGI,HT29 colon,42 µM
same,TGI,SK-MEL-2 melanoma,35.5 µM
same,TGI,ACHN renal,44.9 µM
same,TGI,SF-295 CNS,36.7 µM
same,TGI,NCI-H23 lung,43.8 µM
same,TGI,KM12 colon,47.7 µM
same,TGI,UACC-257 melanoma,62.7 µM
same,TGI,SNB-19 CNS,33.9 µM
same,TGI,HCT-15 colon,52.3 µM
same,TGI,PC-3 prostate,33.8 µM
